Our source for the IC50 values is patent US20230203058A1, “MACROCYCLIC DIAMINE DERIVATIVES AS ENT INHIBITORS FOR THE TREATMENT OF CANCERS, AND COMBINATION THEREOF WITH ADENOSINE RECEPTOR ANTAGONISTS” (ITEOS BELGIUM SA, priority 2020, published 2023).

For the assay, the target named is T1, human ENT1 (Homo sapiens, UniProt Q99808).
T1 sequence (Q99808 1-456): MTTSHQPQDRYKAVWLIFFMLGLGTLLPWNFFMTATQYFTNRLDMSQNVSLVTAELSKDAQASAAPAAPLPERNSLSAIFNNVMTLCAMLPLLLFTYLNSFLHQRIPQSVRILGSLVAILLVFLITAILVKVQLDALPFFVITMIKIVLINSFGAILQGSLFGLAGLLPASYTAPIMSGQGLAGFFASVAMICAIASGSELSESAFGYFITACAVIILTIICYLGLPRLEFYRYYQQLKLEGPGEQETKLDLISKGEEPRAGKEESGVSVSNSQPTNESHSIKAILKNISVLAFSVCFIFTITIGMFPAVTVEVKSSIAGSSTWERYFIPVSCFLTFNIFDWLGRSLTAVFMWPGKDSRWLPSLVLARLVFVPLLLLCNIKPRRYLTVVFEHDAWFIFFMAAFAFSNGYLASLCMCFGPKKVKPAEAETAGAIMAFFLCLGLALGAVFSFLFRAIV
Kind of assay: ENT1 binding assay (competition with Sahenta-DY647 on JAR cells). On the set-up: JAR cells expressing ENT1 were bought from ATCC® (HTB-144TM); host or cells: JAR cells (human choriocarcinoma line; whole cells). As to conditions: competition with Sahenta-DY647 100 nM, 4° C. How it is done: The present assay aims at showing that the compounds of the present invention can bind to human ENT1. The principle of the assay is a competition between the compounds of this invention and Sahenta-DY647, an ENT1 inhibitor that emits fluorescence (Ex = 630 nm, Em = 670 nm). By measuring the fluorescence at the end of the assay we could assess the binding potency of the compounds of the present invention.
JAR cells expressing ENT1 were bought from ATCC® (HTB-144TM). Cells were cultured in RPMI 1640 medium (LONZA®, #BE12-702F/U1) supplemented with 10% FBS (GIBCO®, #10270-106), 10 mM Hepes (LONZA®, #BE17-737E), 1 mM Sodium Pyruvate (LONZA®, #BE13-115E) and 2% Penicillin/Streptomycin (LONZA®, #DE17-603E) at 37° C. and 5% CO2. The assay was conducted on the following buffer: HBSS (LONZA®, #LO-527F) supplemented with 10 mM Hepes (LONZA®, #BE17-737E) and 0.1% BSA (Miltenyi®, #130-091-376) on the day of the assay. JAR cells were resuspended in the described buffer. Compounds of the present invention and Sahenta-DY647 were diluted 200X in the described buffer.
A total of 50000 cells were pre-incubated for 30 min at 4° C. with the compounds of the present invention before adding the corresponded IC90 of Sahenta-DY647 (100 nM) and incubate once more for 30 min at 4° C. The total volume of the reaction was 100 µL (50 µL of cells, 25 µL of the compounds of the present invention and 25 µL of Sahenta-DY647) in a 96 well plate, U-bottom (Greiner®, #650-180). The plates were washed 2X by centrifugation (4 min, 400 rcf at 4° C.) in the same buffer. Cells were resuspended in 70 µL of the buffer and 50 µL was transferred to a Black 384 Optiplate (PerkinElmer®, #6007279). Fluorescence (Ex = 630 nm, Em = 670 nm) was acquired on a Spectramax i3x (Molecular Devices®).
Usually IC50 stands for the concentration needed to halve the response being measured. High values mean lower potency, low ones higher potency. `COc1cc2cc(c1OC)OCCCC(OC(=O)C1CCC(OC)CC1)CCN1CCCN(CCCOC2=O)CC1` (stereo not drawn) [Compound 70, 74,75-dimethoxy-6-oxo-5,8-dioxa-1(1,4)-diazepana-7(1,3)-benzenacyclotetradecaphane-12-yl 4-methoxycyclohexane-1-carboxylate] displayed an IC50 of 1 to 20 nM.
In the case of `COc1cc2cc(c1OC)OCCCC(OC(=O)c1c(F)cccc1F)CCN1CCCN(CCCOC2=O)CC1` (stereo not drawn) [Compound 71, 74,75-dimethoxy-6-oxo-5,8-dioxa-1(1,4)-diazepana-7(1,3)-benzenacyclotetradecaphane-12-yl 2,6-difluorobenzoate] it was 1 to 20 nM.
In the case of `COc1cc2cc(c1OC)OCCCC(OC(=O)c1cccc(C#N)c1)CCN1CCCN(CCCOC2=O)CC1` (stereo not drawn) [Compound 73, 74,75-dimethoxy-6-oxo-5,8-dioxa-1(1,4)-diazepana-7(1,3)-benzenacyclotetradecaphane-12-yl 3-cyanobenzoate] it was 1 to 20 nM.
As to `COc1cc2cc(c1OC)OCCCC(OC(=O)c1ccc3c(c1)CCC(=O)N3)CCN1CCCN(CCCOC2=O)CC1` (stereo not drawn) [Compound 74, 74,75-dimethoxy-6-oxo-5,8-dioxa-1(1,4)-diazepana-7(1,3)-benzenacyclotetradecaphane-12-yl 2-oxo-1,2,3,4-tetrahydroquinoline-6-carboxylate], the IC50 is 1 to 20 nM.
`COc1cc2cc(c1OC)OCCCC(OC(=O)c1cccc(OC(F)F)c1)CCN1CCCN(CCCOC2=O)CC1` (stereo not drawn) [Compound 75, 74,75-dimethoxy-6-oxo-5,8-dioxa-1(1,4)-diazepana-7(1,3)-benzenacyclotetradecaphane-12-yl 3-(difluoromethoxy)benzoate] showed an IC50 of 20 to 500 nM.
On to `COc1cc2cc(c1OC)OCCCC(OC(=O)c1cc(Cl)cc(Cl)c1)CCN1CCCN(CCCOC2=O)CC1` (stereo not drawn) [Compound 76, 74,75-dimethoxy-6-oxo-5,8-dioxa-1(1,4)-diazepana-7(1,3)-benzenacyclotetradecaphane-12-yl 3,5-dichlorobenzoate], for which the IC50 lay in the range of 20 to 500 nM.
The value for `COc1cc2cc(c1OC)OCCCC(OC(=O)c1cccc(Cl)c1Cl)CCN1CCCN(CCCOC2=O)CC1` (stereo not drawn) [Compound 78, 74,75-dimethoxy-6-oxo-5,8-dioxa-1(1,4)-diazepana-7(1,3)-benzenacyclotetradecaphane-12-yl 2,3-dichlorobenzoate] was 1 to 20 nM; that for `COc1cc2cc(c1OC)OCCCC(OC(=O)c1c(F)ccc(C)c1Cl)CCN1CCCN(CCCOC2=O)CC1` (stereo not drawn) [Compound 79, 74,75-dimethoxy-6-oxo-5,8-dioxa-1(1,4)-diazepana-7(1,3)-benzenacyclotetradecaphane-12-yl 2-chloro-6-fluoro-3-methylbenzoate] was 1 to 20 nM; that for `COc1cc2cc(c1OC)OCCCC(OC(=O)c1ccc(F)c(C(F)(F)F)c1)CCN1CCCN(CCCOC2=O)CC1` (stereo not drawn) [Compound 81, 74,75-dimethoxy-6-oxo-5,8-dioxa-1(1,4)-diazepana-7(1,3)-benzenacyclotetradecaphane-12-yl 4-fluoro-3-(trifluoromethyl)benzoate] was 1 to 20 nM.
The value for `COc1cc2cc(c1OC)OCCCC(OC(=O)c1ccc(C#N)c(F)c1)CCN1CCCN(CCCOC2=O)CC1` (stereo not drawn) [Compound 82, 74,75-dimethoxy-6-oxo-5,8-dioxa-1(1,4)-diazepana-7(1,3)-benzenacyclotetradecaphane-12-yl 4-cyano-3-fluorobenzoate] was 1 to 20 nM.
In turn, `COc1cc2cc(c1OC)OCCCC(OC(=O)c1ccc(C(F)(F)F)cc1)CCN1CCCN(CCCOC2=O)CC1` (stereo not drawn) [Compound 83, 74,75-dimethoxy-6-oxo-5,8-dioxa-1(1,4)-diazepana-7(1,3)-benzenacyclotetradecaphane-12-yl 4-(trifluoromethyl)benzoate] displayed an IC50 of 1 to 20 nM.
The value for `COc1cc2cc(c1OC)OCCCC(OC(=O)c1cc(F)cc(F)c1)CCN1CCCN(CCCOC2=O)CC1` (stereo not drawn) [Compound 84, 74,75-dimethoxy-6-oxo-5,8-dioxa-1(1,4)-diazepana-7(1,3)-benzenacyclotetradecaphane-12-yl 3,5-difluorobenzoate] was 1 to 20 nM; that for `COc1cc2cc(c1OC)OCCCC(OC(=O)c1ccc(F)c(F)c1)CCN1CCCN(CCCOC2=O)CC1` (stereo not drawn) [Compound 85, 74,75-dimethoxy-6-oxo-5,8-dioxa-1(1,4)-diazepana-7(1,3)-benzenacyclotetradecaphane-12-yl 3,4-difluorobenzoate] was 1 to 20 nM; that for `COc1cc2cc(c1OC)OCCCC(OC(=O)c1ccc(F)c(C#N)c1)CCN1CCCN(CCCOC2=O)CC1` (stereo not drawn) [Compound 86, 74,75-dimethoxy-6-oxo-5,8-dioxa-1(1,4)-diazepana-7(1,3)-benzenacyclotetradecaphane-12-yl 3-cyano-4-fluorobenzoate] was 1 to 20 nM.
In the case of `COc1cc2cc(c1OC)OCCCC(OC(=O)c1ccc(C#N)cc1)CCN1CCCN(CCCOC2=O)CC1` (stereo not drawn) [Compound 87, 74,75-dimethoxy-6-oxo-5,8-dioxa-1(1,4)-diazepana-7(1,3)-benzenacyclotetradecaphane-12-yl 4-cyanobenzoate] it was 1 to 20 nM; in that of `COc1cc2cc(c1OC)OCCCC(OC(=O)c1ccc3c(c1)ncn3C)CCN1CCCN(CCCOC2=O)CC1` (stereo not drawn) [Compound 89, 74,75-dimethoxy-6-oxo-5,8-dioxa-1(1,4)-diazepana-7(1,3)-benzenacyclotetradecaphane-12-yl 1-methyl-1 H-benzo [d] imidazole-5-carboxylate], 1 to 20 nM.
In turn, `COc1cc2cc(c1OC)OCCCC(OC(=O)c1ccc(-c3cnco3)cc1)CCN1CCCN(CCCOC2=O)CC1` (stereo not drawn) [Compound 90, 74,75-dimethoxy-6-oxo-5,8-dioxa-1(1,4)-diazepana-7(1,3)-benzenacyclotetradecaphane-12-yl 4-(oxazol-5-yl)benzoate] registered an IC50 of 1 to 20 nM.
In the case of `COc1cc2cc(c1OC)OCCCC(OC(=O)c1cc(Cl)c(Cl)cc1F)CCN1CCCN(CCCOC2=O)CC1` (stereo not drawn) [Compound 91, 74,75-dimethoxy-6-oxo-5,8-dioxa-1(1,4)-diazepana-7(1,3)-benzenacyclotetradecaphane-12-yl 4,5-dichloro-2-fluorobenzoate] it was 1 to 20 nM; in that of `CCOc1cc(C(=O)OC2CCCOc3cc(cc(OC)c3OC)C(=O)OCCCN3CCCN(CC2)CC3)cc(OCC)c1OCC` (stereo not drawn) [Compound 92, 74,75-dimethoxy-6-oxo-5,8-dioxa-1(1,4)-diazepana-7(1,3)-benzenacyclotetradecaphane-12-yl 3,4,5-triethoxybenzoate], 1 to 20 nM; in that of `COc1cc2cc(c1OC)OCCCC(OC(=O)CCC#N)CCN1CCCN(CCCOC2=O)CC1` (stereo not drawn) [Compound 95, 74,75-dimethoxy-6-oxo-5,8-dioxa-1(1,4)-diazepana-7(1,3)-benzenacyclotetradecaphane-12-yl 3-cyanopropanoate], 1 to 20 nM.
The value for `COc1cc2cc(c1OC)OCCCC(OC(=O)CCn1cnnn1)CCN1CCCN(CCCOC2=O)CC1` (stereo not drawn) [Compound 98, 74,75-dimethoxy-6-oxo-5,8-dioxa-1(1,4)-diazepana-7(1,3)-benzenacyclotetradecaphane-12-yl 3-(1 H-tetrazol-1-yl)propanoate] was 1 to 20 nM; that for `CNC(=O)CCC(=O)OC1CCCOc2cc(cc(OC)c2OC)C(=O)OCCCN2CCCN(CC1)CC2` (stereo not drawn) [Compound 101, 74,75-dimethoxy-6-oxo-5,8-dioxa-1(1,4)-diazepana-7(1,3)-benzenacyclotetradecaphane-12-yl 4-(methylamino)-4-oxobutanoate] was 1 to 20 nM; that for `COc1cc2cc(c1OC)OCCCC(OC(=O)CCn1cncn1)CCN1CCCN(CCCOC2=O)CC1` (stereo not drawn) [Compound 102, 74,75-dimethoxy-6-oxo-5,8-dioxa-1 (1,4)-diazepana-7(1,3)-benzenacyclotetradecaphane-12-yl 3-(1H-1,2,4-triazol-1-yl)propanoate] was 1 to 20 nM.
In the case of `COc1cc2cc(c1OC)OCCCC(OC(=O)CCC(=O)N1CCOCC1)CCN1CCCN(CCCOC2=O)CC1` (stereo not drawn) [Compound 103, 74,75-dimethoxy-6-oxo-5,8-dioxa-1 (1,4)-diazepana-7(1,3)-benzenacyclotetradecaphane-12-yl 4-morpholino-4-oxobutanoate] it was 1 to 20 nM.
